Test results as given in US20250043290A1, “RNA SEQUENCES THAT INDUCE FLUORESCENCE OF SMALL MOLECULE FLUOROPHORES, MOLECULAR COMPLEXES, SENSORS, AND METHODS OF USE THEREOF” (CORNELL UNIVERSITY, priority 2021, published 2025).
Entries after “also recorded” stand apart in the source; their conditions may differ.

Legend:
Corn = assay: Beetroot-Corn heterodimer formation, nondenaturing electrophoretic analysis; format: binding; details: equimolar mixture, heat-denatured and cooled
Protocol: FIG. 27B is an image showing that Beetroot is a dimer in vitro. To test this, nondenaturing electrophoretic analysis was performed on a wild-type Beetroot and a mutant Beetroot with mutations in the G-quadruplex that are expected to disrupt any putative dimer formation. […] The RNA band marked with an asterisk (*) reflects an RNA side product from in vitro transcription. […] To test whether Beetroot and Corn can form heterodimers in vitro, nondenaturing electrophoretic analysis was performed on Beetroot, Corn, and a Beetroot-Corn equimolar mixture to measure heterodimer formation. If Beetroot (107 nt) and Corn (250 nt) are orthogonal dimers, two distinct molecular species would be expected: dimeric Beetroot and dimeric Corn. On the other hand, if Beetroot-Corn heterodimers are formed, a third molecular species, reflecting a Beetroot-Corn heterodimer, with a molecular weight in between dimeric Beetroot and dimeric Corn, would be expected. […] In-gel staining with DFAME and DFHO also confirmed the identity of the putative dimeric species. The RNA band marked with an asterisk (*) reflects an RNA side product from in vitro transcription. A final concentration of 350 nM RNA was used in each lane. […]

Beetroot = Beetroot homodimer dissociation, serial dilution and non-denaturing gel electrophoresis; format: binding; details: dilution 1000 nM to 1.4 nM, 20° C., 12 hours; read-out: Homodimerization dissociation constant (Kd)
Protocol: FIGS. 33A-33C provide the dissociation constant (Kd) of Beetroot homodimer. […] These RNAs were incubated at 20° C. for 12 hours and then analyzed using non-denaturing gel electrophoresis (FIG. 33A). The fraction of Beetroot monomer (FIG. 33B) and Beetroot dimer (FIG. 33C) were quantified after SYBR Gold staining. […] The RNA band marked with an asterisk (*) reflects an RNA side product from in vitro transcription. The same side product band was also observed in FIGS. 27B-27C. Quantification shown in […] is based on two independent experiments. FIG. 33D are images showing genetic encoding of simple macromolecular RNA assemblies in cells using Corn when circular RNAs containing 3 and 5 copies of Corn were expressed in HEK293T cells. Clusters of these Corn-containing RNAs were observed as large intracellular puncta. Data shown here is a representative image from three independent cell cultures. Scale bar, 20 μm. FIG. 33E is a graph showing the quantification of the fraction of Corn and Beetroot in the cell that accumulates in puncta. As the valency of Corn increases from three to five, the fraction of Corn participating in the RNA assembly increases from 28±12% to 57±14%. Compared to 5× Corn, a fraction of 27±11% of 5× Beetroot are participating in the Beetroot RNA assembly. Values are means±s.d. FIG. 33F is a graph showing quantification of RNA assembly size in cells. […]

[1] = Fluorescence emission of Beetroot with DFHBI-1T; format: biochemical; details: 20 μM RNA, 2 μM dye
Protocol: (§1) To test whether Beetroot can activate DFHO, the fluorescence emission spectrum of the Beetroot-DFHO complex was measured. In brief, 20 μM Beetroot and 2 μM DFHO were mixed, and the fluorescence emission of the Beetroot-DFHO complex was measured. […] To test whether Beetroot can activate DFHBI-1T, the fluorescence emission spectrum of the Beetroot-DFHBI-1T complex was measured using the same protocol described in FIG. 32A. […] To test whether Beetroot can activate BI, the fluorescence emission spectrum of the Beetroot-BI complex was measured using the same protocol described in FIG. 32A. […] To test whether Corn can activate DFAME, the fluorescence emission spectrum of the Corn-DFAME complex was measured using the same protocol described in FIG. 32A.

[2] = Fluorescence activation of DFAME by aptamers in vitro; format: biochemical; details: in vitro
Protocol: as §1
The eluted RNAs were then ethanol precipitated, reverse transcribed, PCR amplified and in vitro transcribed to yield the pool for the next SELEX round. The presence of fluorescent RNA species in each pool was assessed by mixing 20 μM RNA and 10 μM DFAME and measuring fluorescence emission of this solution on a fluorometer in comparison with the fluorophore alone. At this point, RNAs were cloned into bacterial expression plasmids for FACS-based screening.
dsDNA encoding the top-performing RNA sequences from the brightest bacterial colonies was PCR amplified from the purified plasmids. […] The resulting RNA was then purified using Zymo RNA concentrator columns and quantified by absorbance using a Thermo Scientific NanoDrop 2000 spectrophotometer. For absorption, excitation and emission spectra measurements, “excess RNA” conditions and limiting amount of fluorophore was used to ensure that no free fluorophore contributes to the absorbance or fluorescence signal. The RNA concentration used for fluorescence and absorbance measurements was 20 μM and 50 μM, respectively, while the dye concentration was 2 μM and 5 μM, respectively. All in vitro RNA properties were measured in 40 mM HEPES pH 7.4, 100 mM KCl, 5 mM MgCl2 buffer, unless specified.

[3] = Fluorescence emission of Beetroot with BI; format: biochemical; details: 20 μM RNA, 2 μM dye
Protocol: as §1

[4] = Fluorescence emission of Beetroot with DFHO; format: biochemical; details: 20 μM Beetroot, 2 μM DFHO
Protocol: as §1

HEK293T cells = assay: Imaging Beetroot in HEK293T cells; format: cell-based; details: Tornado circular RNA, tRNA or F30-tRNA scaffold, 10 μM DFAME, 5 mM MgCl2
Protocol: FIGS. 35A-35B show imaging Beetroot in HEK293T cells. To test whether Beetroot could be imaged in HEK293T cells, Beetroot was expressed in Tornado. […] FIG. 35B are images showing HEK293T cells which were transiently transfected with Beetroot-expressing plasmids. About 36 hours after transfection, these transfected HEK293T cells were incubated with 10 μM DFAME and 5 mM MgCl2 for 1 hour prior to imaging. Detectable levels of red fluorescence were not observed in HEK293T cells. Data shown here is a representative image from three independent cell cultures. Scale bar, […].
Prior to imaging experiments, HEK293T cells were incubated with 1 μl of Hoechst 33342 (Thermo Fisher Scientific, H3570) per 2 ml of imaging media (phenol red-free Dulbeco's modified Eagle's medium (Thermo Fisher Scientific 31053-028) supplemented with 10% fetal bovine serum (Corning 35-010-CV), 100 U ml-1 of penicillin and […] of streptomycin, 1× GlutaMAX (Thermo Fisher Scientific, 35050-061) and 1 mM sodium pyruvate (Thermo Fisher Scientific, 11360-070)). For imaging experiments of RNA-fluorophore complex, HEK293T cells were incubated with imaging media supplemented with a final concentration of 10 μM fluorophore (DFHO or DFAME) and 5 mM MgCl2 for one hour prior to imaging.

For “Beetroot: red-fluorescent dimeric fluorogenic RNA aptamer binding DFAME, SEQ ID NO: 96 (GUUAGGCAGAGGUGGGUGGUGUGGAGGAGUAUCUGUC; RNA, backbone not given here)”, the “Heterodimer formation with Corn” value (Corn) was “no mixed Corn-Beetroot heterodimers”, the Kd (Beetroot) was under 1 nM and the “Binding and activation of DFHBI-1T fluorescence” value [1] was “cannot bind and activate”. The “Fold fluorescence enhancement of DFAME” value [2] was “approximately 40 fold”, the “Binding and activation of BI fluorescence” value [3] was “cannot bind and activate” and the “Binding and activation of DFHO fluorescence” value [4] was “weakly binds and activates; also recorded: only weakly bind and activate”. The “Red fluorescence in cells” value (HEK293T cells) was “not observed”.
